Experiments:
[1] = test system: genotype A, "Long" strain RSV; assay: RSV-A assay (CPE protection in Hep-2 cells, ATPlite readout); assay type: cell-based, Human respiratory syncytial virus (HRSV); conditions: human respiratory syncytial virus, RSV-A Long strain, MOI 0.1, CPE protection, read-out: Human RSV-A (“Long”) EC50
Procedure, shortened: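 In this cytopathic-effect protection format, infected Hep-2 cultures (MOI 0.1) are exposed to compound for 5 days. Surviving cell ATP is quantified with ATPlite, and EC50 is determined.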

[2] = test system: HMPV clinical isolate TN/1501/A1; assay: HMPV antiviral assay Method-B (clinical isolate TN/1501/A1 in LLC-MK2 cells, ATP-Lite readout); assay type: cell-based, Human metapneumovirus (HMPV); conditions: human metapneumovirus, LLC-MK2, 144 h, hMPV WT1501 (clinical isolate TN/1501/A1), 6 days
Procedure, shortened: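 LLC-MK2 cells infected in suspension with TN/1501/A1 at MOI 0.014 in serum-free medium with 2 μg/mL TPCK-trypsin (final), incubated 6 days at 37° C. Compounds tested in duplicate, 10-point 3-fold dilutions from 10 μM. Cell health read by ATP-Lite luminescence, normalised to virus-only and cells-only controls; EC50 by four-parameter logistic fit.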

SMILES | EC50 [1] [µM] | EC50 [2] [µM]
COc1cc(C(=O)NC[C@@](O)(c2cc3c(c(-c4ccc5c(c4)OC(F)(F)C(F)(F)O5)n2)OC[C@]3(C)C(N)=O)C(F)(F)F)cc2cn(C3CC3)nc12 [Example 954] | < 0.2 | > 0.5
COc1cc(C(=O)NC[C@@](O)(c2cc3c(c(-c4ccc(F)c(Br)c4F)n2)OC[C@]3(C)C(N)=O)C(F)(F)F)cc2cn(C3CC3)nc12 [Example 955] | < 0.2 | > 0.5
COc1cc(C(=O)NC[C@](O)(c2cc3c(c(-c4ccc(F)c(Br)c4F)n2)OC[C@]3(C)C(N)=O)C(F)(F)F)cc2cn(C3CC3)nc12 [Example 956] | < 0.2 | < 0.5
COc1cc(C(=O)NC[C@](O)(c2cc3c(c(-c4c(F)cc(Cl)cc4F)n2)OC[C@]3(C)C(N)=O)C(F)(F)F)cc2cn(C3CC3)nc12 [Example 961] | < 0.2 | < 0.5
COc1cc(C(=O)NC[C@](O)(c2cc3c(c(-c4ccc5ccccc5c4)n2)OC[C@]3(C)C(N)=O)C(F)(F)F)cc2cn(C3CC3)nc12 [Example 965] | > 0.2 | > 0.5
COc1cc(C(=O)NC[C@](O)(c2cc3c(c(-c4ccc5ncccc5c4)n2)OC[C@]3(C)C(N)=O)C(F)(F)F)cc2cn(C3CC3)nc12 [Example 966] | > 0.2 | > 0.5
COc1cc(C(=O)NC[C@](O)(c2cc3c(c(-c4ccc5nc(C)ccc5c4)n2)OC[C@]3(C)C(N)=O)C(F)(F)F)cc2cn(C3CC3)nc12 [Example 967] | > 0.2 | > 0.5
COc1cc(C(=O)NC[C@](O)(c2cc3c(c(-c4cccs4)n2)OC[C@]3(C)C(N)=O)C(F)(F)F)cc2cn(C3CC3)nc12 [Example 968] | > 0.2 | > 0.5
COc1cc(C(=O)NC[C@](O)(c2cc3c(c(-c4ccc5[nH]ccc5c4)n2)OC[C@]3(C)C(N)=O)C(F)(F)F)cc2cn(C3CC3)nc12 [Example 969] | > 0.2 | > 0.5
COc1cc(C(=O)NC[C@](O)(c2cc3c(c(-c4ccc5cc[nH]c5c4)n2)OC[C@]3(C)C(N)=O)C(F)(F)F)cc2cn(C3CC3)nc12 [Example 970] | > 0.2 | > 0.5
COc1cc(C(=O)NC[C@](O)(c2cc3c(c(-c4ccc5c(c4)CC(=O)N5)n2)OC[C@]3(C)C(N)=O)C(F)(F)F)cc2cn(C3CC3)nc12 [Example 971] | > 0.2 | > 0.5
COc1cc(C(=O)NC[C@](O)(c2cc3c(c(-c4ccc(Cl)c(C(F)(F)F)c4)n2)OC[C@]3(C)C(N)=O)C(F)(F)F)cc2cn(C3CC3)nc12 [Example 972] | < 0.2 | < 0.5
COc1cc(C(=O)NC[C@](O)(c2cc3c(c(-c4ccc5c(c4)OCCO5)n2)OC[C@]3(C)C(N)=O)C(F)(F)F)cc2cn(C3CC3)nc12 [Example 973] | > 0.2 | > 0.5
COc1cc(C(=O)NC[C@](O)(c2cc3c(c(-c4ccc(F)c(C(F)(F)F)c4)n2)OC[C@]3(C)C(N)=O)C(F)(F)F)cc2cn(C3CC3)nc12 [Example 974] | < 0.2 | < 0.5
COc1cc(C(=O)NC[C@](O)(c2cc3c(c(-c4cccc(Cl)c4)n2)OC[C@]3(C)C(N)=O)C(F)(F)F)cc2cn(C3CC3)nc12 [Example 975] | < 0.2 | < 0.5
COc1cc(C(=O)NC[C@](O)(c2cc3c(c(-c4ccc(OC5CC5)cc4)n2)OC[C@]3(C)C(N)=O)C(F)(F)F)cc2cn(C3CC3)nc12 [Example 976] | < 0.2 | > 0.5
COc1cc(C(=O)NC[C@](O)(c2cc3c(c(-c4cccc(C5CC5)c4)n2)OC[C@]3(C)C(N)=O)C(F)(F)F)cc2cn(C3CC3)nc12 [Example 977] | < 0.2 | > 0.5
COc1cc(C(=O)NC[C@](O)(c2cc3c(c(-c4cccc(OC(F)(F)F)c4)n2)OC[C@]3(C)C(N)=O)C(F)(F)F)cc2cn(C3CC3)nc12 [Example 978] | < 0.2 | > 0.5
COc1cc(C(=O)NC[C@](O)(c2cc3c(c(-c4ccc(OCC(F)F)cc4)n2)OC[C@]3(C)C(N)=O)C(F)(F)F)cc2cn(C3CC3)nc12 [Example 979] | < 0.2 | < 0.5
COc1cc(C(=O)NC[C@](O)(c2cc3c(c(-c4ccc5c(c4)CC5)n2)OC[C@]3(C)C(N)=O)C(F)(F)F)cc2cn(C3CC3)nc12 [Example 980] | < 0.2 | < 0.5
COc1cc(C(=O)NC[C@](O)(c2cc3c(c(-c4ccc(C5(C#N)CC5)cc4)n2)OC[C@]3(C)C(N)=O)C(F)(F)F)cc2cn(C3CC3)nc12 [Example 981] | > 0.2 | > 0.5
C#Cc1ccc(-c2nc([C@@](O)(CNC(=O)c3cc(OC)c4nn(C5CC5)cc4c3)C(F)(F)F)cc3c2OC[C@]3(C)C(N)=O)cc1 [Example 982] | < 0.2 | > 0.5
COc1cc(C(=O)NC[C@](O)(c2cc3c(c(-c4ccc(OC(F)(F)F)c(Cl)c4)n2)OC[C@]3(C)C(N)=O)C(F)(F)F)cc2cn(C3CC3)nc12 [Example 983] | < 0.2 | > 0.5

SMILES | EC50 [1] [µM] | EC50 [2] [µM]
COc1cc(C(=O)NC[C@](O)(c2cc3c(c(-c4ccc5c(c4)CCC5)n2)OC[C@]3(C)C(N)=O)C(F)(F)F)cc2cn(C3CC3)nc12 [Example 984] | > 0.2 | > 0.5
COc1cc(C(=O)NC[C@](O)(c2cc3c(c(-c4ccc(F)c(F)c4)n2)OC[C@]3(C)C(N)=O)C(F)(F)F)cc2cn(C3CC3)nc12 [Example 985] | < 0.2 | < 0.5
COc1cc(C(=O)NC[C@](O)(c2cc3c(c(-c4ccc(Cl)c(F)c4)n2)OC[C@]3(C)C(N)=O)C(F)(F)F)cc2cn(C3CC3)nc12 [Example 986] | < 0.2 | < 0.5
COc1cc(C(=O)NC[C@](O)(c2cc3c(c(-c4ccc(Cl)cc4F)n2)OC[C@]3(C)C(N)=O)C(F)(F)F)cc2cn(C3CC3)nc12 [Example 987] | < 0.2 | < 0.5
COc1cc(C(=O)NC[C@](O)(c2cc3c(c(-c4cccc(F)c4F)n2)OC[C@]3(C)C(N)=O)C(F)(F)F)cc2cn(C3CC3)nc12 [Example 988] | < 0.2 | < 0.5
COc1cc(C(=O)NC[C@](O)(c2cc3c(c(-c4c(F)cccc4Cl)n2)OC[C@]3(C)C(N)=O)C(F)(F)F)cc2cn(C3CC3)nc12 [Example 989] | < 0.2 | < 0.5
COc1cc(C(=O)NC[C@](O)(c2cc3c(c(-c4cc(Cl)ccc4F)n2)OC[C@]3(C)C(N)=O)C(F)(F)F)cc2cn(C3CC3)nc12 [Example 990] | < 0.2 | < 0.5
COc1cc(C(=O)NC[C@](O)(c2cc3c(c(-c4cc(F)ccc4Cl)n2)OC[C@]3(C)C(N)=O)C(F)(F)F)cc2cn(C3CC3)nc12 [Example 991] | < 0.2 | < 0.5
COc1cc(C(=O)NC[C@](O)(c2cc3c(c(-c4cc(F)ccc4F)n2)OC[C@]3(C)C(N)=O)C(F)(F)F)cc2cn(C3CC3)nc12 [Example 992] | < 0.2 | < 0.5
COc1cc(C(=O)NC[C@](O)(c2cc3c(c(-c4ccc(F)cc4Cl)n2)OC[C@]3(C)C(N)=O)C(F)(F)F)cc2cn(C3CC3)nc12 [Example 993] | < 0.2 | < 0.5
COc1cc(C(=O)NC[C@](O)(c2cc3c(c(-c4ccc(C(F)(F)F)s4)n2)OC[C@]3(C)C(N)=O)C(F)(F)F)cc2cn(C3CC3)nc12 [Example 994] | < 0.2 | < 0.5
COc1cc(C(=O)NC[C@](O)(c2cc3c(c(-c4ccc5c(c4)C(F)(F)C(=O)N5)n2)OC[C@]3(C)C(N)=O)C(F)(F)F)cc2cn(C3CC3)nc12 [Example 995] | > 0.2 | > 0.5
COc1cc(C(=O)NC[C@](O)(c2cc3c(c(-c4cc(F)c(F)c(F)c4F)n2)OC[C@]3(C)C(N)=O)C(F)(F)F)cc2cn(C3CC3)nc12 [Example 996] | < 0.2 | < 0.5
COc1cc(C(=O)NC[C@](O)(c2cc3c(c(-c4c(F)cc(F)cc4F)n2)OC[C@]3(C)C(N)=O)C(F)(F)F)cc2cn(C3CC3)nc12 [Example 997] | < 0.2 | < 0.5
COc1cc(C(=O)NC[C@](O)(c2cc3c(c(-c4ccc(F)cc4)n2)OC[C@@]3(C(N)=O)C(F)F)C(F)(F)F)cc2cn(C3CC3)nc12 [Example 999] | < 0.2 | < 0.5
COc1cc(C(=O)NC[C@](O)(c2cc3c(c(-c4ccc(F)cc4)n2)OC[C@]3(C(N)=O)C(F)F)C(F)(F)F)cc2cc(Cl)c(C)nc12 [Example 1000] | < 0.2 | > 0.5
COc1cc(C(=O)NC[C@](O)(c2cc3c(c(-c4ccc(F)cc4)n2)OC[C@@]3(C(N)=O)C(F)F)C(F)(F)F)cc2cc(Cl)c(C)nc12 [Example 1001] | < 0.2 | < 0.5
COc1cc(C(=O)NC[C@](O)(c2cc3c(c(-c4ccc(F)c(Cl)c4)n2)OC[C@]3(C(N)=O)C(F)F)C(F)(F)F)cc2cn(C3CC3)nc12 [Example 1002] | > 0.2 | > 0.5
COc1cc(C(=O)NC[C@](O)(c2cc3c(c(-c4ccc(F)c(Cl)c4)n2)OC[C@@]3(C(N)=O)C(F)F)C(F)(F)F)cc2cn(C3CC3)nc12 [Example 1003] | < 0.2 | < 0.5
COc1cc(C(=O)NC[C@](O)(c2cc3c(c(-c4ccc(F)c(Cl)c4)n2)OC[C@]3(C(N)=O)C(F)F)C(F)(F)F)cc2cc(Cl)c(C)nc12 [Example 1004] | > 0.2 | > 0.5
COc1cc(C(=O)NC[C@](O)(c2cc3c(c(-c4ccc(F)c(Cl)c4)n2)OC[C@@]3(C(N)=O)C(F)F)C(F)(F)F)cc2cc(Cl)c(C)nc12 [Example 1005] | < 0.2 | < 0.5
Cc1cnc2c(OC(F)F)cc(C(=O)NC[C@](O)(c3cc4c(c(-c5ccc(F)cc5)n3)OC[C@]4(C(N)=O)C(F)F)C(F)(F)F)cc2c1 [Example 1006] | > 0.2 | > 0.5

— US12612412B2, “Antiviral heterocyclic compounds” (Enanta Pharmaceuticals, Inc., priority 2021, dated 2026)
